Assay results taken from ChEMBL document CHEMBL5727499, “Derivatives and methods of treating hepatitis B infections” (2020).
“Also recorded” adds a separate entry of the source.

Assay: HBV Replication Inhibition Assay: HBV replication inhibition by the compounds of this invention could be determined in cells infected or transfected with HBV, or cells with stably integrated HBV, such as HepG2.2.15 cells (Sells et al. 1987). In this example, HepG2.2.15 cells were maintained in cell culture medium containing 10% fetal bovine serum (FBS), Geneticin, L-glutamine, penicillin and streptomycin. HepG2.2.15 cells could be seeded in 96-well plates at a density of 40,000 cells/well and be treated with serially diluted compounds at a final DMSO concentration of 0.5% either alone or in combination by adding drugs in a checker box format. Cells were incubated with compounds for three days, after which medium was removed and fresh medium containing compounds was added to cells and incubated for another three days. At day 6, supernatant was removed and treated with DNase at 37° C. for 60 minutes, followed by enzyme inactivation at 75° C. for 15 minutes. Encapsidated HBV DNA was released from the virions and covalently linked HBV polymerase by incubating in lysis buffer (Affymetrix QS0010) containing 2.5 μg proteinase K at 50° C. for 40 minutes. HBV DNA was denatured by addition of 0.2 M NaOH and detected using a branched DNA (BDNA) QuantiGene assay kit according to manufacturer recommendation (Affymetrix). HBV DNA levels could also be quantified using qPCR, based on amplification of encapsidated HBV DNA extraction with QuickExtraction Solution (Epicentre Biotechnologies) and amplification of HBV DNA using HBV specific PCR probes that can hybridize to HBV DNA and a fluorescently labeled probe for quantitation. In addition, cell viability of HepG2.2.15 cells incubated with test compounds alone or in combination was determined by using CellTitre-Glo reagent according to the manufacturer protocol (Promega). The mean background signal from wells containing only culture medium was subtracted from all other samples, and percent inhibition at each compound concentration was calculated by normalizing to signals from HepG2.2.15 cells treated with 0.5% DMSO using equation E1.% inhibition=(DMSOave−Xi)/DMSOave×100% E1:where DMSOave is the mean signal calculated from the wells that were treated with DMSO control (0% inhibition control) and Xi is the signal measured from the individual wells. EC50 values, effective concentrations that achieved 50% inhibitory effect, were determined by non-linear fitting using Graphpad Prism software (San Diego, Calif.) and equation E2Y=Y min+(Y max−Y min)/(1+10(Log EC50−X)×HillSlope) E2:where Y represents percent inhibition values and X represents the logarithm of compound concentrations.

Compound: Cc1cc(NC(=O)N2Cc3c(C4CCC4)n[nH]c3CC2C)ccc1F (centres undefined)
- EC50 (HepG2.2.15): in the range around 0.055 µM

Compound: N#Cc1cccc(NC(=O)N2CCc3[nH]nc(C45CCCC4C5)c3C2)c1F (centres undefined)
- EC50 (HepG2.2.15): in the range around 0.055 µM

Compound: CCC(F)(F)c1n[nH]c2c1CN(C(=O)Nc1cccc(Cl)c1)CC2
- EC50 (HepG2.2.15): in the range around 0.3 µM

Compound: Cc1cc(NC(=O)N2CCc3[nH]nc(C45CCCC4C5)c3C2)ccc1F (centres undefined)
- EC50 (HepG2.2.15): in the range around 0.055 µM

Compound: O=C(Nc1cccc(Cl)c1)N1CCc2[nH]nc(C3=CCCCC3)c2C1
- EC50 (HepG2.2.15): in the range around 0.055 µM

Compound: C=C(C)c1n[nH]c2c1CN(C(=O)Nc1cccc(C)c1)CC2
- EC50 (HepG2.2.15): in the range around 0.3 µM

Compound: C=C(C)c1n[nH]c2c1CN(C(=O)Nc1ccnc(Cl)c1F)CC2
- EC50 (HepG2.2.15): in the range around 0.3 µM

Compound: Cc1cc(NC(=O)N2CCc3[nH]nc(C4CCC4)c3C2)ccc1F
- EC50 (HepG2.2.15): in the range around 0.055 µM

Compound: CC1Cc2[nH]nc(C3CCCO3)c2CN1C(=O)Nc1ccc(F)c(Br)c1 (centres undefined)
- EC50: in the range around 55 nM; also recorded: in the range around 300 nM

Compound: CC1Cc2[nH]nc(C3CCCC3)c2CN1C(=O)Nc1ccc(F)c(Br)c1 (centres undefined)
- EC50: in the range around 0.055 µM
- EC50 (HepG2.2.15): in the range around 0.055 µM

Compound: CC1Cc2[nH]nc(C3CCCC3)c2CN1C(=O)Nc1ccnc(Br)c1F (centres undefined)
- EC50: in the range around 0.055 µM
- EC50 (HepG2.2.15): in the range around 0.055 µM

Compound: CC(C)(C)c1n[nH]c2c1CN(C(=O)Nc1cccc(Cl)c1)CC2
- EC50 (HepG2.2.15): in the range around 0.3 µM

Compound: O=C(Nc1cccc(Cl)c1)N1CCc2[nH]nc(C3CC=CC3)c2C1
- EC50 (HepG2.2.15): in the range around 0.055 µM

Compound: C=C(C)c1n[nH]c2c1CN(C(=O)Nc1cccc(Cl)c1)CC2
- EC50 (HepG2.2.15): in the range around 0.055 µM

Compound: CC(C)c1n[nH]c2c1CN(C(=O)Nc1cccc(Cl)c1)CC2
- EC50 (HepG2.2.15): in the range around 0.3 µM

Compound: O=C(Nc1cccc(Cl)c1)N1CCc2[nH]nc(N3CCCC3)c2C1
- EC50 (HepG2.2.15): in the range around 0.3 µM

Compound: O=C(Nc1cccc(Br)c1)N1CCc2[nH]nc(C3CCC3)c2C1
- EC50 (HepG2.2.15): in the range around 0.055 µM

Compound: O=C(Nc1cccc(Cl)c1)N1CCc2[nH]nc(C3CCCC3)c2C1
- EC50 (HepG2.2.15): in the range around 0.055 µM

Compound: CC1(c2n[nH]c3c2CN(C(=O)Nc2cccc(Cl)c2)CC3)CC1
- EC50 (HepG2.2.15): in the range around 0.3 µM

Compound: O=C(Nc1ccc(F)c(Cl)c1)N1CCc2[nH]nc(C34CCCC3C4)c2C1 (centres undefined)
- EC50 (HepG2.2.15): in the range around 0.055 µM

Compound: CC1Cc2[nH]nc(C3CCC3)c2CN1C(=O)Nc1cccc(Br)c1 (centres undefined)
- EC50 (HepG2.2.15): in the range around 0.055 µM

Compound: CCC(C)(C)c1n[nH]c2c1CN(C(=O)Nc1cccc(Cl)c1)CC2
- EC50 (HepG2.2.15): in the range around 0.3 µM

Compound: O=C(Nc1cccc(Cl)c1)N1CCc2[nH]nc(C3CCC(O)C3)c2C1 (centres undefined)
- EC50 (HepG2.2.15): in the range around 0.3 µM

Compound: Cc1cccc(NC(=O)N2CCc3[nH]nc(C4CCC4)c3C2)c1
- EC50 (HepG2.2.15): in the range around 0.3 µM

Compound: CC1Cc2[nH]nc(C3CCCC3)c2CN1C(=O)Nc1cccc(Br)c1 (centres undefined)
- EC50: in the range around 0.055 µM
- EC50 (HepG2.2.15): in the range around 0.055 µM

Compound: CC1Cc2[nH]nc(C3CCCC3)c2CN1C(=O)Nc1ccc(F)c(Cl)c1 (centres undefined)
- EC50: in the range around 0.055 µM
- EC50 (HepG2.2.15): in the range around 0.055 µM

Compound: CC1Cc2[nH]nc(C3CCCO3)c2CN1C(=O)Nc1ccc(F)c(Cl)c1 (centres undefined)
- EC50: in the range around 0.055 µM
- EC50 (HepG2.2.15): in the range around 0.055 µM

Compound: O=C(Nc1cccc(Cl)c1)N1CCc2[nH]nc(C3=CC(F)CC3)c2C1 (centres undefined)
- EC50 (HepG2.2.15): in the range around 0.055 µM

Compound: CC1Cc2[nH]nc(C3CCC3)c2CN1C(=O)Nc1cccc(Br)c1F (centres undefined)
- EC50 (HepG2.2.15): in the range around 0.3 µM

Compound: O=C(Nc1cccc(Cl)c1)N1CCc2[nH]nc(C34CCCC3C4)c2C1 (centres undefined)
- EC50 (HepG2.2.15): in the range around 0.055 µM

Compound: CC(C)(O)c1n[nH]c2c1CN(C(=O)Nc1cccc(Cl)c1)CC2
- EC50 (HepG2.2.15): > 10 µM

Compound: Cc1cccc(NC(=O)N2CCc3[nH]nc(C45CCCC4C5)c3C2)c1 (centres undefined)
- EC50 (HepG2.2.15): in the range around 0.055 µM

Compound: O=C(Nc1cccc(Cl)c1)N1CCc2[nH]nc(C3=CCOCC3)c2C1
- EC50 (HepG2.2.15): in the range around 0.3 µM

Compound: CC1Cc2[nH]nc(C3CCCO3)c2CN1C(=O)Nc1ccc(F)c(C#N)c1 (centres undefined)
- EC50: in the range around 0.3 µM
- EC50 (HepG2.2.15): in the range around 0.3 µM

Compound: CC1Cc2[nH]nc(C3CCC3)c2CN1C(=O)Nc1ccc(F)c(F)c1 (centres undefined)
- EC50 (HepG2.2.15): in the range around 0.055 µM

Compound: O=C(Nc1ccnc(Cl)c1F)N1CCc2[nH]nc(C34CCCC3C4)c2C1 (centres undefined)
- EC50 (HepG2.2.15): in the range around 0.055 µM

Compound: CC1Cc2[nH]nc(C3CCC3)c2CN1C(=O)Nc1cccc(C#N)c1F (centres undefined)
- EC50: in the range around 0.3 µM
- EC50 (HepG2.2.15): in the range around 0.3 µM

Compound: Cc1cccc(NC(=O)N2Cc3c(C4CCC4)n[nH]c3CC2C)c1 (centres undefined)
- EC50 (HepG2.2.15): in the range around 0.055 µM

Compound: C=C(C)c1n[nH]c2c1CN(C(=O)Nc1cccc(Br)c1F)CC2
- EC50 (HepG2.2.15): in the range around 0.055 µM

Compound: CC1Cc2[nH]nc(C3CCC3)c2CN1C(=O)Nc1ccc(F)c(Br)c1 (centres undefined)
- EC50 (HepG2.2.15): in the range around 0.055 µM

Compound: CC1Cc2[nH]nc(C3CCCO3)c2CN1C(=O)Nc1ccnc(Br)c1F (centres undefined)
- EC50 (HepG2.2.15): 0.75 µM

Compound: O=C(Nc1cccc(Cl)c1)N1CCc2[nH]nc(C3CCC3)c2C1
- EC50 (HepG2.2.15): in the range around 0.055 µM

Compound: O=C(Nc1ccc(F)c(F)c1)N1CCc2[nH]nc(C34CCCC3C4)c2C1 (centres undefined)
- EC50 (HepG2.2.15): in the range around 0.3 µM

Compound: N#Cc1cc(NC(=O)N2CCc3[nH]nc(C4CCC4)c3C2)ccc1F
- EC50 (HepG2.2.15): in the range around 0.055 µM

Compound: CC1Cc2[nH]nc(C3CCC3)c2CN1C(=O)Nc1ccc(F)c(C#N)c1 (centres undefined)
- EC50 (HepG2.2.15): in the range around 0.055 µM

Compound: O=C(Nc1ccnc(Cl)c1F)N1CCc2[nH]nc(C3CCC3)c2C1
- EC50 (HepG2.2.15): in the range around 0.3 µM

Compound: Cc1cccc(NC(=O)N2Cc3c(C4CCCO4)n[nH]c3CC2C)c1 (centres undefined)
- EC50 (HepG2.2.15): in the range around 0.3 µM

Compound: O=C(Nc1cccc(Br)c1F)N1CCc2[nH]nc(C34CCCC3C4)c2C1 (centres undefined)
- EC50 (HepG2.2.15): in the range around 0.055 µM

Compound: CC1Cc2[nH]nc(C3CCCO3)c2CN1C(=O)Nc1cccc(Br)c1 (centres undefined)
- EC50 (HepG2.2.15): in the range around 0.055 µM

Compound: Cc1cc(NC(=O)N2Cc3c(C4CCCC4)n[nH]c3CC2C)ccc1F (centres undefined)
- EC50: in the range around 0.055 µM
- EC50 (HepG2.2.15): in the range around 0.055 µM

Compound: O=C(Nc1cccc(Cl)c1)N1CCc2[nH]nc(C3CCCO3)c2C1 (centres undefined)
- EC50 (HepG2.2.15): in the range around 0.055 µM

Compound: CC1(c2n[nH]c3c2CN(C(=O)Nc2cccc(Cl)c2)CC3)CCC1
- EC50 (HepG2.2.15): in the range around 0.055 µM

Compound: O=C(Nc1cccc(Cl)c1)N1CCc2[nH]nc(C3(C(F)(F)F)CC3)c2C1
- EC50 (HepG2.2.15): in the range around 0.3 µM

Compound: CC(CO)c1n[nH]c2c1CN(C(=O)Nc1cccc(Cl)c1)CC2 (centres undefined)
- EC50 (HepG2.2.15): > 10 µM

Compound: N#Cc1cc(NC(=O)N2CCc3[nH]nc(C45CCCC4C5)c3C2)ccc1F (centres undefined)
- EC50 (HepG2.2.15): in the range around 0.055 µM

Compound: CCCc1n[nH]c2c1CN(C(=O)Nc1cccc(Cl)c1)CC2
- EC50 (HepG2.2.15): in the range around 0.3 µM

Compound: CCCC(F)(F)c1n[nH]c2c1CN(C(=O)Nc1cccc(Cl)c1)CC2
- EC50 (HepG2.2.15): in the range around 0.055 µM

Compound: O=C(Nc1cccc(Cl)c1)N1CCc2[nH]nc(C3CCOCC3)c2C1
- EC50 (HepG2.2.15): in the range around 0.3 µM

Compound: O=C(Nc1ccc(F)c(Br)c1)N1CCc2[nH]nc(C34CCCC3C4)c2C1 (centres undefined)
- EC50 (HepG2.2.15): in the range around 0.055 µM

Compound: O=C(Nc1cccc(Br)c1)N1CCc2[nH]nc(C34CCCC3C4)c2C1 (centres undefined)
- EC50 (HepG2.2.15): in the range around 0.055 µM

Compound: CC1Cc2[nH]nc(C3CCCC3)c2CN1C(=O)Nc1cccc(Cl)c1 (centres undefined)
- EC50: in the range around 0.055 µM
- EC50 (HepG2.2.15): in the range around 0.055 µM

Compound: CC1Cc2[nH]nc(C3CCC3)c2CN1C(=O)Nc1ccnc(Br)c1F (centres undefined)
- EC50: in the range around 0.3 µM
- EC50 (HepG2.2.15): in the range around 0.3 µM

Compound: CC1Cc2[nH]nc(C3CCCO3)c2CN1C(=O)Nc1cccc(Cl)c1 (centres undefined)
- EC50 (HepG2.2.15): in the range around 0.055 µM

Compound: Cc1cc(NC(=O)N2Cc3c(C4CCCO4)n[nH]c3CC2C)ccc1F (centres undefined)
- EC50: in the range around 55 nM; also recorded: in the range around 300 nM

Compound: O=C(Nc1cccc(Cl)c1)N1CCc2[nH]nc(C3CC3)c2C1
- EC50 (HepG2.2.15): in the range around 0.3 µM

Compound: O=C(Nc1cccc(Br)c1F)N1CCc2[nH]nc(C3CCC3)c2C1
- EC50 (HepG2.2.15): in the range around 0.055 µM

Compound: O=C(Nc1cccc(Cl)c1)N1CCc2[nH]nc(C3=CCCC3)c2C1
- EC50 (HepG2.2.15): in the range around 0.055 µM

Compound: O=C(Nc1ccnc(Br)c1F)N1CCc2[nH]nc(C34CCCC3C4)c2C1 (centres undefined)
- EC50 (HepG2.2.15): in the range around 0.055 µM

Compound: O=C(Nc1cccc(Cl)c1)N1CCc2[nH]nc(O)c2C1
- EC50 (HepG2.2.15): > 10 µM
